#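 Tested at 5 concentrations; 48 h exposure; 96-well plates; endpoints linearly interpolated, else capped at highest concentration. TGI marks complete inhibition of growth.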
# Assays:
# Assay in all cases: growth of human tumour cells (NCI), 48 h
# 786-0 renal = test system: 786-0 renal
# A498 renal = test system: A498 renal
# A549 NSCLC = test system: A549 NSCLC
# ACHN renal = test system: ACHN renal
# BT-549 breast = test system: BT-549 breast
# CAKI-1 renal = test system: CAKI-1 renal
# CCRF-CEM leukemia = test system: CCRF-CEM leukemia
# COLO 205 colon = test system: COLO 205 colon
# DU-145 prostate = test system: DU-145 prostate
# EKVX NSCLC = test system: EKVX NSCLC
# HCC-2998 colon = test system: HCC-2998 colon
# HCT-116 colon = test system: HCT-116 colon
# HCT-15 colon = test system: HCT-15 colon
# HL-60(TB) leukemia = test system: HL-60(TB) leukemia
# HOP-62 NSCLC = test system: HOP-62 NSCLC
# HOP-92 NSCLC = test system: HOP-92 NSCLC
# HS 578T breast = test system: HS 578T breast
# HT29 colon = test system: HT29 colon
# IGROV1 ovarian = test system: IGROV1 ovarian
# KM12 colon = test system: KM12 colon
# LOX IMVI melanoma = test system: LOX IMVI melanoma
# M14 melanoma = test system: M14 melanoma
# MALME-3M melanoma = test system: MALME-3M melanoma
# MCF7 breast = test system: MCF7 breast
# MDA-MB-231 breast = test system: MDA-MB-231 breast
# MDA-MB-435 = test system: MDA-MB-435
# MDA-N = test system: MDA-N
# MOLT-4 leukemia = test system: MOLT-4 leukemia
# NCI-H226 lung = test system: NCI-H226 lung
# NCI-H23 lung = test system: NCI-H23 lung
# NCI-H460 lung = test system: NCI-H460 lung
# NCI-H522 lung = test system: NCI-H522 lung
# NCI/ADR-RES ovarian = test system: NCI/ADR-RES ovarian
# OVCAR-3 ovarian = test system: OVCAR-3 ovarian
# OVCAR-4 ovarian = test system: OVCAR-4 ovarian
# OVCAR-5 ovarian = test system: OVCAR-5 ovarian
# OVCAR-8 ovarian = test system: OVCAR-8 ovarian
# PC-3 prostate = test system: PC-3 prostate
# RPMI-8226 leukemia = test system: RPMI-8226 leukemia
# RXF 393 renal = test system: RXF 393 renal
# SF-268 CNS = test system: SF-268 CNS
# SF-295 CNS = test system: SF-295 CNS
# SF-539 CNS = test system: SF-539 CNS
# SK-MEL-2 melanoma = test system: SK-MEL-2 melanoma
# SK-MEL-28 melanoma = test system: SK-MEL-28 melanoma
# SK-MEL-5 melanoma = test system: SK-MEL-5 melanoma
# SK-OV-3 ovarian = test system: SK-OV-3 ovarian
# SN12C renal = test system: SN12C renal
# SNB-19 CNS = test system: SNB-19 CNS
# SNB-75 CNS = test system: SNB-75 CNS
# SR leukemia = test system: SR leukemia
# SW-620 colon = test system: SW-620 colon
# T-47D breast = test system: T-47D breast
# TK-10 renal = test system: TK-10 renal
# U251 CNS = test system: U251 CNS
# UACC-257 melanoma = test system: UACC-257 melanoma
# UACC-62 melanoma = test system: UACC-62 melanoma
# UO-31 renal = test system: UO-31 renal
smiles,measurement,setting,value
CCCC1=C(OC)C(=O)c2c(C)cc(Cl)nc2C1=O,TGI,786-0 renal,5.23 µM
same,TGI,A498 renal,35 µM
same,TGI,A549 NSCLC,26.9 µM
same,TGI,ACHN renal,17.4 µM
same,TGI,BT-549 breast,26.5 µM
same,TGI,CAKI-1 renal,21.7 µM
same,TGI,CCRF-CEM leukemia,2.77 µM
same,TGI,COLO 205 colon,22.1 µM
same,TGI,DU-145 prostate,28.6 µM
same,TGI,EKVX NSCLC,20.7 µM
same,TGI,HCC-2998 colon,20.2 µM
same,TGI,HCT-116 colon,7.26 µM
same,TGI,HCT-15 colon,11.2 µM
same,TGI,HL-60(TB) leukemia,3.65 µM
same,TGI,HOP-62 NSCLC,29.9 µM
same,TGI,HOP-92 NSCLC,11.3 µM
same,TGI,HS 578T breast,> 47 µM
same,TGI,HT29 colon,8.45 µM
same,TGI,IGROV1 ovarian,30.3 µM
same,TGI,KM12 colon,18.1 µM
same,TGI,LOX IMVI melanoma,5.15 µM
same,TGI,M14 melanoma,18.9 µM
same,TGI,MALME-3M melanoma,9.71 µM
same,TGI,MCF7 breast,6.17 µM
same,TGI,MDA-MB-231 breast,19.5 µM
same,TGI,MDA-MB-435,3.45 µM
same,TGI,MDA-N,3.33 µM
same,TGI,MOLT-4 leukemia,3.72 µM
same,TGI,NCI-H226 lung,33.2 µM
same,TGI,NCI-H23 lung,13.7 µM
same,TGI,NCI-H460 lung,26.6 µM
same,TGI,NCI-H522 lung,8.06 µM
same,TGI,NCI/ADR-RES ovarian,14.2 µM
same,TGI,OVCAR-3 ovarian,6.54 µM
same,TGI,OVCAR-4 ovarian,19.5 µM
same,TGI,OVCAR-5 ovarian,29.1 µM
same,TGI,OVCAR-8 ovarian,23.7 µM
same,TGI,PC-3 prostate,26.4 µM
same,TGI,RPMI-8226 leukemia,5.98 µM
same,TGI,RXF 393 renal,20.2 µM
same,TGI,SF-268 CNS,27.2 µM
same,TGI,SF-295 CNS,31.9 µM
same,TGI,SF-539 CNS,20.3 µM
same,TGI,SK-MEL-2 melanoma,24.4 µM
same,TGI,SK-MEL-28 melanoma,16.7 µM
same,TGI,SK-MEL-5 melanoma,16.7 µM
same,TGI,SK-OV-3 ovarian,31 µM
same,TGI,SN12C renal,9.62 µM
same,TGI,SNB-19 CNS,34.9 µM
same,TGI,SNB-75 CNS,20.1 µM
same,TGI,SR leukemia,5.11 µM
same,TGI,SW-620 colon,10.5 µM
same,TGI,T-47D breast,9.83 µM
same,TGI,TK-10 renal,34.5 µM
same,TGI,U251 CNS,18.6 µM
same,TGI,UACC-257 melanoma,19.7 µM
same,TGI,UACC-62 melanoma,13.8 µM
same,TGI,UO-31 renal,26.5 µM
